As usually defined, the melting point is the temperature, or range, at which the solid turns liquid.

SMILES strings stand for the structures. Like-named read-outs stand apart in the source and are kept apart here.

Data set [1] concerns promastigotes L. braziliensis/ L. amazonensis. Put plainly: in vitro anti-Leishmania activity, promastigotes (Table 1S). Type of data set: cell-based. Particulars: read-out: IC50 ± %SD (µM) promastigotes L. braziliensis/ L. amazonensis.
Data set [2] deals with L. infantum (MHOM/BR/2002/LPC-RPV) promastigotes. Kind of data set: in vitro anti-Leishmania activity, promastigotes, resazurin. Format: cell-based, Leishmania infantum. (The colour change of resazurin is a common sign of viable cells or microbes.)
For data set [3], the system named is T. cruzi epimastigotes, Tulahuen 2 strain (genotype TcVI). Put plainly: in vitro anti-T. cruzi activity, epimastigote growth (absorbance 600 nm). Format: cell-based, Trypanosoma cruzi. As for the experimental part:
Control parasites were cultivated in 0.4% DMSO. Each concentration of the compound was evaluated in duplicate.

Data set [4] concerns L. infantum .uy (parasites isolated from two dogs in the first Leishmaniasis outbreak in Uruguay). Kind of data set: in vitro activity against L. infantum isolated from dogs in Uruguay. Particulars: for IC50: Leishmania infantum, read-out: IC50 ± %SD (µM) L. infantum .uy. Type of data set: cell-based, Leishmania infantum. How it is done: Compounds were dissolved in dimethylsulfoxide (DMSO).
For assessing the amastigote form of all Leishmania strains were cultured in the RPMI described above. Parasites were seeded at 1 × 10^6 cells/mL and at each time point counted at least five times to obtain a growth curve. […] Control conditions of parasites without drug (100% growth) and medium without parasites were included. After 72 h at 28 °C parasite viability was determined by the resazurin method described. Infection with L. infantum. THP-1 monocytes (ATCC®TIB-202™) were grown following ATCC recommendations and seeded at 30,000 cells/well onto 18-mm round glass coverslips in 12 wells. For stimulation cells were incubated with 100 nM of PMA for 48 h, PMA was washed and cells left with growth media for 24 h more after incubation with parasites. 30,000 parasites/well were added and left to interact. After 48 h, coverslips were washed with PBS, fixed with 95% (v/v) ethanol, and stained with Fluoroshield™ with DAPI (Sigma). Infectivity was assessed considering invasion and replication capacity counting infected cells and parasites per infected cell, respectively. Infectivity index calculation = (% of infected cells X (amastigotes per cell))/number of total counted cells. Image acquisition was made with a Leica TCS-SP5 laser scanning confocal microscope (Leica Microsystems GmbH, Wetzlar, Germany) using the LASAF v.2 software (Leica Microsystems, Wetzlar, Germany) and observed using a 356 nm laser excitation line and an emission bandwidth from 461 nm under a 20× water immersion objective. Further image analysis, including quantitation and processing of figures were made using Fiji (http://fiji.sc/).

Data set [5] deals with L. amazonensis (promastigotes). Put plainly: in vitro anti-Leishmania activity, promastigotes, resazurin. Format: cell-based. Particulars: maximum dose tested 25 µM, read-out: IC50 ± %SD (µM) L. amazonensis.
The subject of data set [6] is J774.1 murine macrophages. Put plainly: nonspecific cytotoxicity on mammalian cells, MTT. Type of data set: cell-based. Particulars: for IC50: Mus musculus, J774.1, 48 h, MTT, read-out: IC50 ± SD (µM) Murine Macrophages; for SI J774.1/T. cruzi: ratio IC50 murine macrophages / IC50 T. cruzi epimastigotes.
Where [7] appears, read: Leishmania infantum, promastigotes, maximum dose tested 25 µM, read-out: IC50 ± %SD (µM) L. infantum.
Setting [8] is: Trypanosoma cruzi, TULAHUEN, epimastigotes, maximum dose tested 25 µM, read-out: IC50 ± %SD (µM) T. cruzi.
Setting [9] is: parasites isolated from two dogs in Uruguay, maximum dose tested 25 µM.

Molecule `C[C@]12CC[C@H]3[C@@H](CC=C4CC(O)CC[C@@]43C)[C@@H]1CC[C@@H]2C(=O)/C=C/C=C/c1ccco1` (stereo partly drawn) [Compound 7, (2E,4E)-5-(furan-2-yl)-1-((8S,9S,10R,13S,14S,17S)-3-hydroxy-10,13-dimethyl-2,3,4,7,8,9,10,11,12,13,14,15,16,17-tetradecahydro-1H-cyclopenta[a]phenanthren-17-yl)penta-2,4-dien-1-one] yielded a melting point of 100 to 103 °C. Also, the IC50 in data set [1] was > 25 µM. Besides, the IC50 in data set [2] (setting [7]) was > 25 µM. The IC50 in data set [3] (setting [8]) was > 25 µM. Moreover, the IC50 in data set [4] was > 25 µM. Also, in data set [5], the IC50 was > 25 µM.

With `C=CCn1c(C(=O)NCC(=O)OCC)cs/c1=N/N=C(/C)[C@@H]1CC[C@H]2[C@@H]3CC=C4CC(O)CC[C@]4(C)[C@H]3CC[C@]12C` (stereo partly drawn) [Compound 14, Ethyl-2-((Z)-3-allyl-2-((E)-(1-((8S,9S,10R,13S,14S,17R)-3-hydroxy-10,13-dimethyl-2,3,4,7,8,9,10,11,12,13,14,15,16,17-tetradecahydro-1H-cyclopenta[a]phenanthren-17-yl)ethylidene)hydrazono)-2,3-dihydrothiazole-4-carboxamido)acetate], the IC50 in data set [1] is > 25 µM; in data set [6], 100 ± 8 µM; in data set [2] (setting [7]), > 25 µM; in data set [3] (setting [8]), 8 ± 2 µM; in data set [4], > 25 µM. Further, the “SI J774.1/T. cruzi” value in data set [6] came out at 13. In addition, the “activity against Leishmania infantum from Fiocruz collection, in words” value in data set [2] was “active”. Moreover, in data set [4], the “active against the strains isolated from Uruguayan dogs, in words” value is given as “not”.

Consider `C/C(=N/N=c1\[nH]c(C(=O)O)cs1)[C@@H]1CC[C@H]2[C@@H]3CC=C4CC(O)CC[C@]4(C)[C@H]3CC[C@]12C` (stereo partly drawn) [Compound 18, (Z)-2-((E)-(1-((8S,9S,10R,13S,14S,17R)-3-hydroxy-10,13-dimethyl-2,3,4,7,8,9,10,11,12,13,14,15,16,17-tetradecahydro-1H-cyclopenta[a]phenanthren-17-yl)ethylidene)hydrazono)-2,3-dihydrothiazole-4-carboxylic acid], for which the melting point was 281 to 283 °C.

Molecule `C=CCn1c(-c2ccc(Br)cc2)csc1=NN=C(C)C1CCC2C3CC=C4CC(O)CCC4(C)C3CCC12C` (stereo not drawn) [Compound 11, 1-(3β-Hydroxy-pregn-5-ene-20E-ylidene)-2-(3-allyl-4-(4-bromo-pheny)thiazol-2(3H)-ylidene)azine] had a melting point of 179 to 183 °C. Further, the IC50 in data set [1] is 16 ± 3 µM. Further, the IC50 in data set [2] (setting [7]) is > 25 µM. In data set [3] (setting [8]), the IC50 is > 25 µM. In addition, the IC50 in data set [4] was > 25 µM. In data set [5], the IC50 came out at 16 ± 3 µM.

Take `CCCCCCCCCCCCCCCCOP(=O)([O-])OCC[N+](C)(C)C` [Miltefosine, reference compound]: the IC50 is 50 ± 7 µM in data set [6], 0.9 ± 0.2 µM in data set [2] (setting [7]), 8 ± 2 µM in data set [3] (setting [8]) and 5 ± 2 µM in data set [4] (setting [9]). The “SI J774.1/L. infantum” value in data set [6] (ratio IC50 murine macrophages / IC50 L. infantum promastigotes) came out at 56. The “SI J774.1/T. cruzi” value in data set [6] is recorded as 6.

Turning to `CC1CS(=O)(=O)CCN1/N=C/c1ccc([N+](=O)[O-])o1` (centres unmarked) [Nifurtimox, reference compound], the IC50 in data set [2] (setting [7]) is 6 ± 2 µM; in data set [3] (setting [8]), 7 ± 2 µM; in data set [4] (setting [9]) it was 10 ± 2 µM.

Regarding `C=CCn1c(C(=O)O)cs/c1=N/N=C(/C)[C@@H]1CC[C@H]2[C@@H]3CC=C4CC(O)CC[C@]4(C)[C@H]3CC[C@]12C` (stereo partly drawn) [Compound 19, (Z)-3-allyl-2-((E)-(1-((8S,9S,10R,13S,14S,17R)-3-hydroxy-10,13-dimethyl-2,3,4,7,8,9,10,11,12,13,14,15,16,17-tetradecahydro-1H-cyclopenta[a]phenanthren-17-yl)ethylidene)hydrazono)-2,3-dihydrothiazole-4-carboxylic acid], the melting point was 145 to 149 °C.

In the case of `C=CCn1c(-c2ccc(Cl)cc2)csc1=NN=C(C)[C@H]1CC[C@H]2[C@@H]3CC=C4C[C@@H](O)CC[C@]4(C)[C@H]3CC[C@]12C` [Compound 20, 1-(3β-Hydroxy-pregn-5-ene-20E-ylidene)-2-(3-allyl-4-(4-chloro-pheny)thiazol-2(3H)-ylidene)azine], the IC50 in data set [1] is > 25 µM; in data set [2] (Table 1S, read-out: IC50 ± %SD (µM) promastigotes L. infantum) it was > 25 µM; in data set [3] (Table 1S, read-out: IC50 ± %SD (µM) epimastigotes T. cruzi), > 25 µM.

On to `C[C@]12CC[C@H]3[C@@H](CC=C4CC(O)CC[C@@]43C)[C@@H]1CC[C@@H]2C(=O)/C=C/c1cccnc1Br` (some centres unmarked) [Compound 1], for which the melting point fell in the range of 193 to 195 °C. Moreover, the IC50 in data set [1] was > 25 µM. The IC50 in data set [2] (setting [7]) was > 25 µM. Besides, the IC50 in data set [3] (setting [8]) is > 25 µM. Moreover, the IC50 in data set [4] is > 25 µM. Besides, in data set [5], the IC50 is > 25 µM.

`C[C@]12CC[C@H]3[C@@H](CC=C4CC(O)CC[C@@]43C)[C@@H]1CC[C@@H]2C(=O)/C=C/c1cccc(Br)c1` (some centres unmarked) [Compound 4] came in with a melting point of 159 to 161 °C. In addition, the IC50 in data set [1] was > 25 µM. Moreover, in data set [2], the “activity against Leishmania infantum from Fiocruz collection, in words” value was “active”. For the same molecule, the IC50 in data set [2] (setting [7]) was > 25 µM. Besides, in data set [3] (setting [8]), the IC50 came to 20 ± 5 µM. Further, in data set [4], the “active against the strains isolated from Uruguayan dogs, in words” value was “not” and the IC50 was > 25 µM. Also, in data set [5], the IC50 is > 25 µM.

With `C[C@]12CC[C@H]3[C@@H](CC=C4CC(O)CC[C@@]43C)[C@@H]1CC[C@@H]2C(=O)/C=C/c1ccccc1` (stereo partly drawn) [Compound 5, (2E)-1-((10R,13S)-2,3,4,7,8,9,10,11,12,13,14,15,16,17-tetradecahydro-3(β)-hydroxy-10,13-dimethyl-1H-cyclopenta[a]phenan-thren-17(β)-yl)-3-phenylprop-2-en-1-one], the IC50 in data set [1], in data set [2] (setting [7]), in data set [3] (setting [8]), in data set [4] and in data set [5] was > 25 µM each time.

In the case of `C/C(=N\Nc1nc(C(=O)N2CCN(C/C=C\c3ccccc3)CC2)cs1)[C@@H]1CC[C@H]2[C@@H]3CC=C4CC(O)CC[C@]4(C)[C@H]3CC[C@]12C` (stereo partly drawn) [Compound 13, (2-((E)-2-(1-((8S,9S,10R,13S,14S,17R)-3-hydroxy-10,13-dimethyl-2,3,4,7,8,9,10,11,12,13,14,15,16,17-tetradecahydro-1H-cyclopenta[a]phenanthren-17-yl)ethylidene)hydrazinyl)thiazol-4-yl)(4-((Z)-3-phenylallyl)piperazin-1-yl)methanone], the IC50 in data set [1], in data set [2] (setting [7]), in data set [3] (setting [8]) and in data set [4] was > 25 µM each time.

As for `C=CCn1c(C(=O)N2CCN(CC=Cc3ccccc3)CC2)cs/c1=N/N=C(/C)[C@@H]1CC[C@H]2[C@@H]3CC=C4CC(O)CC[C@]4(C)[C@H]3CC[C@]12C` (stereo partly drawn) [Compound 12, ((Z)-3-allyl-2-((E)-(1-((8S,9S,10R,13S,14S,17R)-3-hydroxy-10,13-dimethyl-2,3,4,7,8,9,10,11,12,13,14,15,16,17-tetradecahydro-1H-cyclopenta[a]phenanthren-17-yl)ethylidene)hydrazono)-2,3-dihydrothiazol-4-yl)(4-cinnamylpiperazin-1-yl)methanone], the IC50 in data set [1], in data set [2] (setting [7]), in data set [3] (setting [8]) and in data set [4] was > 25 µM throughout.

Take `CC(=O)[C@H]1CC[C@H]2[C@@H]3CC=C4C[C@@H](O)CC[C@]4(C)[C@H]3CC[C@]12C` [Pregnenolone, 3β-hydroxyl-5-pregnen-20-one, reference compound]: the IC50 in data set [2] (setting [7]), in data set [3] (setting [8]), in data set [4] (setting [9]) and in data set [5] was > 25 µM throughout.

(Values after PMC6832524, “A Nature-Inspired Design Yields a New Class of Steroids Against Trypanosomatids” (Molecules, 2019).)
